Measured values reported in US20230242616A1, “CHEMOKINE-SELECTIVE CXCR4 ECTODOMAIN-DERIVED (POLY)PEPTIDE” (Ludwig-Maximilians-Universität München, priority 2020, published 2023).

Assays:
Apoe−/− mice on HFD [1] = assay: Cytokine array on plasma of treated mice; format: in vivo, mouse; details: reductions for IFN-γ, IL-1α, IL-16, TNF-α, CXCL13/BLC
Description: Cytokine array. Cytokine/chemokine profiling was performed from plasma samples of msR4M-L1-versus vehicle-treated Apoe^−/− mice using mouse cytokine array panel A (R&D Systems, ARY006) according to the manufacturer's instructions. Plasma samples were diluted (1:10) in array buffer; incubated with antibody detection cocktail for 1 h at RT, exposed to the blocked membranes (overnight, 4° C.), membranes washed and incubated with streptavidin-HRP conjugate working solution (30 min, RT). Membranes were developed with Chemi-Reagent Mix and analyzed by Odyssey® Fc imager. The average signal (pixel density) of duplicate spots was quantified by ImageJ.

Apoe−/− mice on HFD [2] = assay: In-vivo model of early atherosclerosis
Description: Seven-eight-week-old female Apoe^−/− mice were randomly divided into two groups of 11-12 mice each and both groups put on a Western-type HFD (0.2% cholesterol) for 4.5 weeks. Mice develop early-to-intermediate atherosclerotic lesions in this model^39. […] At the end of the experiment, mice were sacrificed, blood collected by cardiac puncture and saved for blood cell and lipid measurements and mice transcardially perfused with saline. Hearts, proximal aortas and carotid arteries were prepared and fixed for plaque morphometry and lesion analysis.
Quantification of plaques and vessel morphometry (oil red O and H&E staining). Cut heart tissue containing aortic root were embedded in optimum cutting temperature (OCT) (Sakura Finetek, Osaka, Japan) and frozen at −80° C. Eight-μm sections were prepared for oil-red O (ORO) staining and plaque immune cell analysis. The accumulation of macrophages in aortic root lesions was determined by an anti-MAC-2 antibody followed by Cy5-conjugated secondary antibody. Nuclei were visualized with DAPI. The aortic arch was cut, fixed in 4% paraformaldehyde (PFA) and embedded in paraffin. Ten-μm sections containing the three branches (brachiocephalic, left common carotid, and left subclavian artery) were prepared and stained with hematoxylin/eosin (HE) for vessel morphometry. Images were captured with a Leica DMi8 microscope and quantified using Image J.

[3] = test system: human monocyte-derived macrophages; details: read-out: IC50 of MIF-triggered Dil-oxLDL uptake; lower threshold of effect size roughly 50%
[4] = test system: primary human monocyte-derived macrophages; assay: Dil-LDL uptake / foam cell formation, MIF-mediated; format: cell-based
Description: Dil-LDL uptake/foam cell formation. […] After washing with imaging solution (MEM without phenol red containing 30 mM HEPES, 0.5 g/L NaHCO3, pH 7.4, and 0.2% BSA), cells were exposed to 50 μg/mL 1,1′-dioctadecyl-3,3,3′3′-tetra-methylindocarbocyanine-labeled LDL (Dil-LDL) for 30 min at 4° C. followed by incubation at 37° C. for 20 min. Cells were washed with ice-cold imaging solution (pH 3.5), fixed, and counter-stained with Hoechst 33258.

human monocytes [5] = assay: 3D migration of monocytes elicited by CXCL12; format: cell-based; details: 5-fold molar excess
Excerpt: (§1) Isolation of human peripheral blood-derived monocytes. Human peripheral blood-derived monocytes were isolated as described^14. Briefly, blood was collected from healthy donors or buffy coat obtained from the blood bank of Munich University Hospital, mixed 1:1 with PBS, and PBMCs isolated by Ficoll-Paque Plus gradient (GE Healthcare). Monocytes were purified by negative depletion using the Monocyte Isolation Kit II (Miltenyi). Monocyte purity was verified by flow cytometry using an anti-CD14 antibody (Miltenyl) and was 95-98%. […] The isolation of PBMCs from donor blood was approved by the local ethics committee of LMU Munich. 3D migration of human peripheral blood-derived monocytes by time-lapse microscopy. The 3D-migration behavior of human monocytes was assessed by time-lapse microscopy and individual cell tracking using the 3D chemotaxis μ-Slide system from Ibidi GmbH (Munich, Germany), adapting the established Ibidi dendritic cell protocol for human monocytes. […] Cell motility was monitored performing time-lapse imaging every 1 min at 37° C. for 2 h using a Leica inverted DMi8-Life Cell Imaging System equipped with a DMC2900 Digital Microscope Camera with CMOS sensor and live cell-imaging software (Leica Microsystems, Wetzlar, Germany). Images were imported as stacks to ImageJ software and analyzed with the manual tracking and chemotaxis/migration tools (Ibidi GmbH).

[6] = Blood cell counts, lipid levels and body weight of treated mice; format: in vivo, mouse
Excerpt: Blood cell counts, triglycerides and cholesterol levels. […] APC-conjugated anti-CD19, FITC-conjugated anti-CD3.

mouse MIF = mouse MIF (Mus musculus, UniProt P34884); assay: Dot blot with TAMRA-msR4M-L1, human versus mouse MIF; format: binding
Description: Dot blot. […] Non-specific binding was blocked with Tris-buffered saline (TBS), pH 7.4, containing 0.1% Tween-20 (TBS-T) and 1% BSA. […] Fluorescence intensities were measured at 600 nm using an Odyssey® Fc imager (LICOR Biosciences, Bad Homburg, Germany). The total intensity of each spot was automatically corrected by the individual background signal.

[7] = test system: carotid arteries of Apoe−/− mice; assay: Leukocyte adhesion in atherogenic carotid arteries ex vivo under flow; design: species or system mouse; details: injection three days before vessel preparation; physiological flow
Description: Fluos-msR4M-L1 staining and monocyte adhesion in atherosclerotic carotid arteries by multiphoton microscopy. Monocyte adhesion experiments in atherosclerotic carotid arteries under physiological flow conditions ex vivo have been established^14, 70. Seven-week-old Apoe^−/− mice were fed a Western-type HFD (0.2% cholesterol) for 12 weeks. […] On day 3, arteries were prepared and mounted into an arteriograph chamber as described^70. […] Mouse leukocytes isolated from the bone marrow of msR4M-L1- or vehicle-treated atherogenic Apoe^−/− mice were stained with fluorescent Green CMFDA or Red CMPTX (Thermo Fisher Scientific). […] The red- and green-stained cell pools were mixed at a 1:1 ratio and 3×10^6 cells in 6 mL perfused into the artery of msR4M-L1- or vehicle-treated mice, respectively. Arteries were scanned by MPM using a multispectral TCS SP8 DIVE instrument with filter-free 4TUNE NDD detection module (Leica) and the number of adherent and transmigrated leukocytes determined by scanning multi-photon excitation. Vessel structure (and plaques) were visualized by second harmonic generation (SHG).

human monocytes [8] = assay: 3D migration of monocytes elicited by MIF (time-lapse microscopy); format: cell-based
Excerpt: as §1

## CC[C@H](C)[C@H](NC(=O)[C@H](Cc1ccc(O)cc1)NC(=O)[C@H](CCCNC(=N)N)NC(=O)[C@H](CC(=O)O)NC(=O)CCCCCCCCCCCNC(=O)CCCCCNC(=O)[C@H](CCCCN)NC(=O)[C@H](CS)NC(=O)[C@H](CC(C)C)NC(=O)[C@H](Cc1ccccc1)NC(=O)[C@H](CC(N)=O)NC(=O)CNC(=O)[C@H](Cc1ccccc1)NC(=O)[C@H](Cc1ccc(O)cc1)NC(=O)[C@H](Cc1c[nH]c2ccccc12)NC(=O)[C@H](CC(N)=O)NC(=O)[C@H](C)NC(=O)[C@@H](NC(=O)[C@H](C)NC(=O)[C@@H](N)CC(=O)O)C(C)C)C(=O)N[C@@H](CS)C(=O)N[C@@H](CC(=O)O)C(=O)N[C@@H](CCCNC(=N)N)C(=O)N[C@@H](Cc1ccccc1)C(=O)N[C@@H](Cc1ccc(O)cc1)C(=O)N1CCC[C@H]1C(=O)N[C@@H](CC(N)=O)C(=O)N[C@@H](CC(=O)O)C(=O)N[C@@H](CC(C)C)C(=O)N[C@@H](Cc1c[nH]c2ccccc12)C(=O)N[C@H](C(N)=O)C(C)C [msR4M-L1]
Apoe−/− mice on HFD [1]
  circulating inflammatory cytokine levels: marked reduction
Apoe−/− mice on HFD [2]; 50 μg i.p. for 4.5 weeks
  toxicity or side effects: No toxicity or side effects were noted
Apoe−/− mice on HFD [2]; 50 μg per mouse i.p., HFD 4.5 weeks
  number of lesional macrophages (MAC-2 staining): significantly decreased number of lesional macrophages
Apoe−/− mice on HFD [2]; 50 μg per mouse i.p., HFD 4.5 weeks, versus vehicle
  atherosclerotic lesion size in aortic arch and root: significantly decreased
[3]
  IC50: ~100 nM
[4]; 80 nM MIF
  effect on MIF-mediated Dil-LDL uptake: dose-dependently inhibited
[4]; Dil-LDL uptake
  inhibitory capacity compared with established MIF inhibitors: slightly better than that of ISO-1, but lower than that or NIH/IIID.9
Human monocytes [5]
  effect on CXCL12-induced cell motility: remained unaffected
[6]; Apoe−/− mice, HFD 4.5 weeks
  Leukocytes: 4632 ± 286 per μL
  Lymphocytes: 2347 ± 50 per μL
  Monocytes: 552 ± 51 per μL
  Neutrophils: 1897 ± 46 per μL
  Triglycerides: 156.7 ± 3.8 mg/dL
  Weight: 22.3 ± 0.2 g
[6]; Apoe−/− mice, HFD 4.5 weeks, means ± SD
  Cholesterol: 647.4 ± 19.2 mg/dL
[6]; mouse, in vivo
  effect on body weight, plasma total cholesterol, triglyceride levels, blood leukocyte counts: did not observe any effect
Mouse MIF
  binding to human versus mouse MIF on dot blot: binds equally well to human and mouse MIF
[7]
  number of adhering leukocytes: significantly reduced the number of adhering leukocytes
Human monocytes [8]
  effect on MIF-triggered 3D monocyte migration: dose-dependently attenuated
  molar excess that ablates the pro-migratory effect of MIF: 2 -fold molar excess
